Results: patent US7189710B2, “C2-fluoro pyrrolo [2,1−c][1,4]benzodiazepine dimers” (Council of Scientific and Industrial Research, priority 2004, dated 2007)

Assays:
[1] = test system: melanoma cancer cell lines; test: NCI in vitro cytotoxicity, SRB assay, average per cancer type; format: cell-based; settings: Homo sapiens; average of six to eight different cancer cell lines; read-out: Log GI50 (inhibitory concentration), melanoma (converted)
Protocol: (§1) Biological Activity: In vitro biological activity studies were carried out at National Cancer Institute (USA).
(§2) Cytotoxicity: Compounds IXa and IXc were evaluated for in vitro against sixty human tumour cells derived from nine cancer types (leukemia, non-small-cell lung, colon, CNS, melanoma, ovarian, prostate, and breast cancer). For each compound, dose response curves against each cell line were measured at a minimum of five concentrations at 10 fold dilutions. A protocol of 48 h continuous drug exposure was used and a sulforhodamine B (SRB) protein assay was used to estimate cell viability or growth. The concentration causing 50% cell growth inhibition (GI50), total cell growth inhibition (TGI, 0% growth) and 50% cell death (LC50, −50% growth) compared with the control was calculated.
(§3) Each cancer type represent the average of six to eight different cancer cell lines.

renal cancer cell lines = test: as above; format: cell-based; settings: Homo sapiens; average of six to eight different cancer cell lines; read-out: Log GI50 (inhibitory concentration), renal (converted)
Protocol: as §1, §2, §3

[2] = test system: prostate cancer cell lines; test: as above; format: cell-based; settings: Homo sapiens; average of six to eight different cancer cell lines; read-out: Log GI50 (inhibitory concentration), prostate (converted)
Protocol: as §1, §2, §3

[3] = test system: non-small-cell lung cancer cell lines; test: as above; format: cell-based; settings: Homo sapiens; average of six to eight different cancer cell lines; read-out: Log GI50 (inhibitory concentration), non-small-cell lung (converted)
Protocol: as §1, §2, §3

breast cancer cell lines = test: as above; format: cell-based; settings: Homo sapiens; average of six to eight different cancer cell lines; read-out: Log GI50 (inhibitory concentration), breast (converted)
Protocol: as §1, §2, §3

colon cancer cell lines = test: as above; format: cell-based; settings: Homo sapiens; average of six to eight different cancer cell lines; read-out: Log GI50 (inhibitory concentration), colon (converted)
Protocol: as §1, §2, §3

CNS cancer cell lines = test: as above; format: cell-based; settings: Homo sapiens; average of six to eight different cancer cell lines; read-out: Log GI50 (inhibitory concentration), CNS (converted)
Protocol: as §1, §2, §3

[4] = test system: ovarian cancer cell lines; test: as above; format: cell-based; settings: Homo sapiens; average of six to eight different cancer cell lines; read-out: Log GI50 (inhibitory concentration), ovarian (converted)
Protocol: as §1, §2, §3

[5] = test system: leukemia cancer cell lines; test: as above; format: cell-based; settings: Homo sapiens; average of six to eight different cancer cell lines; read-out: Log GI50 (inhibitory concentration), leukemia (converted)
Protocol: as §1, §2, §3

[6] = test system: sixty human tumour cells derived from nine cancer types; test: NCI in vitro cytotoxicity screen, sixty human tumour cell lines, SRB assay, 48 h (mean graph midpoints); format: cell-based; settings: 48 h continuous drug exposure, mean over human tumour cell lines; for Log10LC5O mean graph midpoint (MG_MID): 50% cell death (−50% growth); for GI50: 50% cell growth inhibition, read-out: Log10 GI50 mean graph midpoint (MG_MID) (converted); for Log10 TGI mean graph midpoint (MG_MID): total cell growth inhibition (0% growth)
Protocol: as §1, §2

SF-268 (CNS) = test: In vitro one dose primary anticancer assay; format: cell-based, human; settings: one dose at 10^−4 molar concentration
Protocol: as §1

NCI-H460 (Lung) = test: In vitro one dose primary anticancer assay; format: cell-based, human; settings: one dose at 10^−4 molar concentration
Protocol: as §1

MCF7 (Breast) = test: In vitro one dose primary anticancer assay; format: cell-based, human; settings: one dose at 10^−4 molar concentration
Protocol: as §1

## COc1cc2c(cc1OCCCOc1cc3c(cc1OC)C(=O)N1C[C@@H](F)C[C@H]1C=N3)N=C[C@@H]1C[C@H](F)CN1C2=O [IXa]
[1]
  GI50: 3.24 µM
Renal cancer cell lines
  GI50: 4.84 µM
[2]
  GI50: 6.61 µM
[3]
  GI50: 5.52 µM
Breast cancer cell lines
  GI50: 3.24 µM
Colon cancer cell lines
  GI50: 5.19 µM
CNS cancer cell lines
  GI50: 2.86 µM
[4]
  GI50: 4.9 µM
[5]
  GI50: 2.15 µM
[6]
  Log10LC5O mean graph midpoint (MG_MID): −4.31
  GI50: 6.17 µM
  Log10 TGI mean graph midpoint (MG_MID): −4.75
SF-268 (CNS)
  Growth percentages (CNS) SF-268: 0%
NCI-H460 (Lung)
  Growth percentages (Lung) NCI-H460: 0%
MCF7 (Breast)
  Growth percentages (Breast) MCF7: 0%

## COc1cc2c(cc1OCCCCCOc1cc3c(cc1OC)C(=O)N1C[C@@H](F)C[C@H]1C=N3)N=C[C@@H]1C[C@H](F)CN1C2=O [IXc]
[1]
  GI50: 0.05 µM
Renal cancer cell lines
  GI50: 0.0322 µM
[2]
  GI50: 0.0372 µM
[3]
  GI50: 0.0481 µM
Breast cancer cell lines
  GI50: 0.0583 µM
Colon cancer cell lines
  GI50: 0.0863 µM
CNS cancer cell lines
  GI50: 0.0237 µM
[4]
  GI50: 0.24 µM
[5]
  GI50: 0.0161 µM
[6]
  Log10LC5O mean graph midpoint (MG_MID): −4.87
  GI50: 0.0724 µM
  Log10 TGI mean graph midpoint (MG_MID): −6.27
SF-268 (CNS)
  Growth percentages (CNS) SF-268: 0%
NCI-H460 (Lung)
  Growth percentages (Lung) NCI-H460: 0%
MCF7 (Breast)
  Growth percentages (Breast) MCF7: 0%
